Assay [1] has as its system Fancc−/− mice. In words: Example 10 preparative regimen for BM transplantation in Fancc−/− mice. As to conditions: preconditioning before BM transplantation. It is filed as in vivo. The protocol: Four preparative regimens before BM transplantation on Fancc−/− mice are used to evaluate the capacity of CASIN as a preconditioning agent: (1) Control group; (2) CY group: a single dose of 40 mg/kg CY intraperitoneally; (3) CASIN group: 2.5 mg/Kg; (4) combination of CASIN and CY: one injection of CASIN is given in combination with reduced doses of CY.
Fancc−/− mice are preconditioned with each of these four regimens, and 4×10^7 BM cells from congenic strain mice are transplanted into preconditioned mice by tail vein injection. Mice that underwent transplantation are bled every four weeks to monitor the chimerism of donor-derived cells in PB. And at 3 m, the mice are sacrificed to evaluate the engraftment of donor-derived cells in BM.

The subject of assay [2] is N-RasMA93 cells. Description: directional migration of N-RasMA93 leukemia cells towards SDF-1α (transwell). It is filed as cell-based, human. As to conditions: in vitro. The procedure: FIG. 5B. Migration of leukemia cells towards SDF-1α without or with CASIN pre-treatment at doses of 5 and 10 μM was determined by transwell assays.
Like normal HSCs, their malignant counterpart, leukemia initiating cells (LICs) reside in their BM niches that provide the structural and physiological conditions supporting their survival and growth. LICs are resistant to traditional chemotherapy by interacting with their BM microenvironment, which are the culprits of leukemia relapses after a period of remission induced by chemotherapy. Detachment of LICs from their niche by CASIN would be a valuable supplementary therapy to the traditional cancer therapies (e.g., chemotherapies). First of all, in vitro effects of CASIN were examined in adhesion, migration, and F-actin polymerization of LICs, each of which is independently important for the retention of LICs in BM niches. Retroviral transduction of an MLL-AF9 fusion cDNA together with N-Ras oncogene into normal human CD34^+cord blood cells led to the establishment of cultures of N-Ras-MA93 cells that can initiate acute myeloid leukemia in NOG mice. […] To address it, a human AML model was set up by transplanting N-RasMA93 cells into NOG mice intravenously.

Assay [3] has as its system Cdc42WT/WT MEF cells. In words: Example 7 adhesion, migration, actin polymerization in MEF cells. As to conditions: in vitro. It is filed as cell-based, mouse. The protocol: To further verify the specificity of CASIN on Cdc42 activity inhibition, adhesion, migration, Actin polymerization is evaluated in both Cdc42−/− and Cdc42WT/WT MEF cells under the following five groups: (1) Cdc42WT/WT cells without treatment; (2) Cdc42−/− cells without treatment; (3) Cdc42WT/WT cells treated with CASIN; (4) Cdc42WT/WT cells treated with control medium; (5) Cdc42−/− cells treated with CASIN, in order to verify that CASIN function through inhibiting Cdc42. similarly, activities of the down stream effectors of Cdc42, Rac, and Rho under the five groups are monitored by western blot as above.

In assay [4] the test system is donor cell engraftment. Description: Example 9 mobilization as preparative regimen for HSC transplantation. The class given is in vivo, mice. The procedure:
If the microenvironmental niches are vacated after CASIN exposure, donor HSCs might engraft better in hosts treated with a mobilizing agent such as CASIN compared with non-mobilized controls. To test this, bone marrow transplantation is performed on recipient mice which are pre-conditioned with CASIN. […] Additionally, AMD3100, G-CSF, and control medium are used in parallel with CASIN as controls.
Briefly, mice are treated with CASIN, and 4×10^7 donor bone marrow cells from congenic mouse strain are transplanted 48 h later. Donor cell engraftment is assayed at 3 months using the congenic markers by flow cytometry.
Additionally, multiple cycles of mobilization with CASIN may increase the number of available niches. Therefore, this study investigates whether repeated cycles of CASIN mobilization, each followed by donor cell transplantation, could result in increased engraftment. Briefly, mice receive one weekly injection of CASIN on 3 consecutive weeks and 4×10^7 donor marrow cells are transplanted 48 hours after each mobilization. Control animals also received 3 weekly infusions of 4×10^7 donor marrow cells but no CASIN. And the donor engraftment is assayed at 3 months after transplantation as well.

Assay [5] deals with Fancc−/− mice. In words: Example 10 HSC/P mobilization in Fancc−/− mice. As to conditions: mouse, in vivo. The procedure:
The effects of CASIN on HSC/P mobilization in Fancc−/− mice are investigated under four groups in parallel with WT mice: (1) Control group; (2) G-CSF group: 2.5 μg G-CSF per mouse, twice a day for 4 d120; (3) CASIN group: 2.5 mg/Kg; (4) combination of CASIN and G-CSF: one injection of CASIN is given 40 h before the end of 4 d G-CSF administration.
Fancc−/− or WT mice are mobilized with regimens corresponding to the four experimental groups. Then PB are harvested by cardiac puncture. Phenotypically, the absolute number and percentage of HSC/Ps in PB after mobilization are determined as those of LSK (Lin− Sca+ c-Kit+) cells by flow cytometry. Functionally, CFU-C assay is performed in triplicate for each mouse by using PB of mice from different experimental groups, and CFU-GM, CFU-GEMM, BFU-E, and CFU-E are distinguished by morphology and using cytokine combinations. Furthermore, the long-term repopulation capacity of the mobilized HSCs is evaluated using a competitive repopulating assay and subsequent secondary transplantation as discussed above.

Assay [6] relates to C57Bl/6 mice. In words: Example 7 PK/PD analysis of HPC mobilization in C57Bl/6 mice. The class given is in vivo. The procedure:
The mice are i.p. administered with CASIN at 6 different doses (0.5, 1.0, 2.5, 5.0, 7.5, and 10 mg/Kg), and ˜1 ml blood are collected by cardiac puncture for PD and PK analysis predosing, 6, 12, 24, 36, 48, 60, and 72 h postdosing. 5 mice are used for each group. To do PK analysis, concentrations of CASIN in plasma are determined by high-pressure liquid chromatography (HPLC) with electrochemical detection, and then all compartmental and noncompartmental analyses are performed using WinNonlin Professional (version 2.0) software (Pharsight, Cary, N.C.). The maximum drug concentration in serum (Cmax) and the time to Cmax are determined directly from the concentration-time curves. Terminal elimination half-life is determined by linear regression of the log-transformed final concentration-time points. As for the PD analysis, the effects of CASIN on mobilization of CFU-GM, CFU-GEMM, BFU-E and CFU-E to the blood of C57Bl/6 mice are evaluated. By using the rest of blood, assays for CFU-GM, CFU-GEMM, BFU-E and CFU-E are performed using ingredients and cytokine combinations, and then the plot of CFU number versus time across the dose groups is drawn. In this way, the optimal dose and time for mobilization in C57Bl/6 mice are determined. […]

With `OCCNC1CCCc2c1[nH]c1ccc(-c3ccccc3)cc21` (centres unmarked) [CASIN], the “repopulation and engraftment of donor derived cells in PB and BM of Fancc−/− recipient mice” value in assay [1] is “reasonable repopulation and engraftment of donor derived cells”. Further, in assay [2], the “directional migration capacity of N-RasMA93 cells” value is “significantly impaired”. In addition, the “MEF cells' ability of adhesion, migration and actin polymerization” value in assay [3] is “impairs”. The “engraftment with 3-cycle administration and subsequent transplantation” value in assay [4] (3 weekly cycles) is on record as “further improved compared to one cycle”. For the same compound, in assay [4] (compared to the non-mobilization control), the “engraftment of donor cells in pre-conditioned recipients” value is “significantly increased engraftment of donor cells”. For the same compound, the “mobilization of HSC/Ps (LSK cells, progenitor colonies) in Fancc−/− mice” value in assay [5] is reported as “effective mobilizer”. Further, the “mobilization after multiple injections one half-life time apart” value in assay [6] (C57/B16) is given as “stronger mobilization effects than that of single CASIN injection”. In addition, the “mobilization of HPCs (colony numbers versus dose)” value in assay [6] (single i.p. dose, C57Bl/6 mice) is “dose-dependent pattern”.

The values are drawn from patent publication US9433663B2, “Mobilization of hematopoietic stem cells” (Children's Hospital Medical Center, priority 2008, dated 2016).
